Assay results: ChEMBL document CHEMBL1139921, “Synthesis and biological activity of 2-alkylbenzimidazoles bearing a N-phenylpyrrole moiety as novel angiotensin II AT1 receptor antagonists” (Bioorg Med Chem Lett, 2007)
The source made the active and inactive calls. The calls are words filed in the database; no cut-off is given here.

What was measured:
[1] = target: T1, Type-1 angiotensin II receptor (Oryctolagus cuniculus, UniProt P34976); assay: Antagonist activity at AT1 receptor assessed inhibition of angiotensin-2-induced contraction of rabbit thoracic aortic rings; type: functional; conditions: read-out: pA2 (converted)
T1 sequence (P34976 whole entry): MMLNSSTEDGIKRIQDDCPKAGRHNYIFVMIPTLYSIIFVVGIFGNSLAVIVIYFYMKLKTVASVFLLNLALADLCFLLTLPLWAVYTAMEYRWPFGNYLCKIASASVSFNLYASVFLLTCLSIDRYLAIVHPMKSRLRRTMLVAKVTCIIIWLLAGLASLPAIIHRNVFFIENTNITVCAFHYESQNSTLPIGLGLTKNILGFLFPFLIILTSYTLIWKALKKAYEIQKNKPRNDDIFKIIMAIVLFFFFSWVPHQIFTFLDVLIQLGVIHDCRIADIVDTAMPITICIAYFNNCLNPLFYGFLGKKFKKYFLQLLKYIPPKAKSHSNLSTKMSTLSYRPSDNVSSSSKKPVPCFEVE

[2] = target: T2, Type-1 angiotensin II receptor (Bos taurus, UniProt P25104); assay: Displacement of [125I]angiotensin-2 from bovine adrenal cortex AT1 receptor; type: tissue-based
T2 sequence (P25104 whole entry): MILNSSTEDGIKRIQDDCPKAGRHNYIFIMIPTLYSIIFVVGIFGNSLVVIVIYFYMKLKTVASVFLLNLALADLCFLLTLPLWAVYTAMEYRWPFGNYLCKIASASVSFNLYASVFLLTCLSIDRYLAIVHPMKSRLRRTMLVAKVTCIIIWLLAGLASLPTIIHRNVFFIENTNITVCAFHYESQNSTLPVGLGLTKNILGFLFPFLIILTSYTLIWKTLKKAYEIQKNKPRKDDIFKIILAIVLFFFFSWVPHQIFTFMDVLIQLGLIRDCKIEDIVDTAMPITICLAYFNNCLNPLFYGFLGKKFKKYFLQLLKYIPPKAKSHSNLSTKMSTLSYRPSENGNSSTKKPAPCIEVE

[3] = target: T3, Type-1 angiotensin II receptor (Oryctolagus cuniculus) (UniProt P34976); assay: Antagonist activity at AT1 receptor assessed inhibition of norepinephrine-induced contraction of rabbit thoracic aortic rings; type: functional
T3 sequence (whole entry): T1 sequence (P34976 whole entry)

[4] = target: T3, Type-1 angiotensin II receptor (Oryctolagus cuniculus); assay: Antagonist activity at AT1 receptor assessed inhibition of KCl-induced contraction of rabbit thoracic aortic rings; type: functional
Rattus norvegicus [5] = assay: Inhibition of angiotensin-2-induced pressor response in normotensive rat at 1 mg/kg, po; type: functional, organism-based; design: dose 1 mg/kg
Rattus norvegicus [6] = assay: Reduction of mean arterial pressure in spontaneously hypertensive rat at 1 mg/kg, po; type: functional, organism-based; design: dose 1 mg/kg; conditions: Artery
Rattus norvegicus [7] = assay: Decrease in mean arterial pressure in po dosed spontaneously hypertensive rat; type: functional, organism-based; conditions: Artery
[8] = target: T3, Type-1 angiotensin II receptor (Oryctolagus cuniculus); assay: Antagonist activity at AT1 receptor assessed inhibition of histamine-induced contraction of rabbit thoracic aortic rings; type: functional

Row | SMILES | Kb [1] [nM] | IC50 [2] [nM] | Activity [3] | Activity [4] | Activity (Rattus norvegicus [5]) | Activity (Rattus norvegicus [6]) | Activity (Rattus norvegicus [7]) | Activity [8]
1 | CCc1nc2cccc(C(=O)O)c2n1Cc1ccc(-n2cccc2C(=O)O)cc1 | 316 | 160 | – | – | – | – | – | –
2 | CCCc1nc2cccc(C(=O)O)c2n1Cc1ccc(-n2cccc2C(=O)O)cc1 | 100 | 92 | – | – | – | – | – | –
3 | Cc1nc2cccc(C(=O)O)c2n1Cc1ccc(-n2cccc2C(=O)O)cc1 | 1260 | 250 | – | – | – | – | – | –
4 | COC(=O)c1cccc2nc(C)n(Cc3ccc(-n4cccc4-c4nnn[nH]4)cc3)c12 | 100 | 200 | – | – | – | – | – | –
5 | CCCCc1nc2cccc(C(=O)O)c2n1Cc1ccc(-n2cccc2C(=O)O)cc1 | 10 | 33 | – | – | – | – | – | –
6 | CCCCc1nc2cccc(C(=O)O)c2n1Cc1ccc(-n2cccc2-c2nnn[nH]2)cc1 | 3.16 | 6.9 | inactive | inactive | Active | Active | Dose-dependent effect | inactive
7 | CCCc1nc2cccc(C(=O)OCC)c2n1Cc1ccc(-n2cccc2-c2nnn[nH]2)cc1 | 79.4 | 41 | – | – | – | – | – | –
8 | CCc1nc2cccc(C(=O)OC)c2n1Cc1ccc(-n2cccc2-c2nnn[nH]2)cc1 | 31.6 | 140 | – | – | – | – | – | –
9 | CCCCc1nc2cccc(C(=O)OCC)c2n1Cc1ccc(-n2cccc2-c2nnn[nH]2)cc1 | 15.8 | 19 | – | – | – | – | – | –
10 | CCCc1nc2cccc(C(=O)OC)c2n1Cc1ccc(-n2cccc2-c2nnn[nH]2)cc1 | 12.6 | 32 | – | – | – | – | – | –
11 | CCCc1nc2cccc(C(=O)O)c2n1Cc1ccc(-n2cccc2-c2nnn[nH]2)cc1 | 6.31 | 16 | – | – | – | – | – | –
12 | CCCCc1nc2cccc(C(=O)OC)c2n1Cc1ccc(-n2cccc2-c2nnn[nH]2)cc1 | 3.98 | 9.8 | inactive | inactive | Active | Active | Dose-dependent effect | inactive
